Experimental data taken from paper PMC12652222 (International Journal of Molecular Sciences, 2025).
Where “and” joins values, the source holds several entries; their conditions need not be identical. Equal values may be shown once.

Experiments:
[1] = Hydrogen peroxide (H2O2) scavenging; format: biochemical; conditions: mean ± SE, n = 3; for H2O2 (%): inhibition % at 20 µg/mL
Protocol: (§1) The antioxidant activity was assessed using the iron reducing power (IRP) and the total antioxidant capacity (TAC). Ascorbic acid served as a standard to calculate the inhibition percentages (%) and the median inhibitory concentration (IC50) of each tested compound against the following radicals: nitric oxide (NO), hydroxyl (OH), hydrogen peroxide (H2O2), ABTS [79], and DPPH [80].

[2] = Nitric oxide (NO) radical scavenging; format: biochemical; conditions: mean ± SE, n = 3; for NO (%): inhibition % at 20 µg/mL
Protocol: as §1

protein denaturation = experiment: Protein denaturation inhibition (anti-arthritic); format: biochemical; set-up: concentration or dose not given beside the values; conditions: mean ± SE, n = 3
Protocol: (§2) Anti-arthritic activity was evaluated using diclofenac sodium as the reference drug. The inhibition percentage and IC50 were determined for protein denaturation and the proteinase enzyme.

proteinase enzyme = experiment: Proteinase inhibition (anti-arthritic); format: biochemical; set-up: Proteinase Inhibition (%): concentration or dose not given beside the values; conditions: mean ± SE, n = 3
Protocol: as §2

[3] = Hydroxyl (OH) radical scavenging; format: biochemical; conditions: mean ± SE, n = 3; for OH (%): inhibition % at 20 µg/mL
Protocol: as §1

[4] = Total antioxidant capacity (TAC); format: biochemical; conditions: mean ± SE, n = 3
Protocol: as §1

DPPH radical scavenging = format: biochemical; conditions: mean ± SE, n = 3; for DPPH (%): inhibition % at 20 µg/mL
Protocol: as §1

α-amylase = target: T1, α-amylase (Homo sapiens, UniProt P04746); experiment: α-Amylase inhibition; format: biochemical; conditions: for inhibition at 20 µg/mL: read-out: α-Amylase Inhibition (%)
T1 sequence (P04746 16-511): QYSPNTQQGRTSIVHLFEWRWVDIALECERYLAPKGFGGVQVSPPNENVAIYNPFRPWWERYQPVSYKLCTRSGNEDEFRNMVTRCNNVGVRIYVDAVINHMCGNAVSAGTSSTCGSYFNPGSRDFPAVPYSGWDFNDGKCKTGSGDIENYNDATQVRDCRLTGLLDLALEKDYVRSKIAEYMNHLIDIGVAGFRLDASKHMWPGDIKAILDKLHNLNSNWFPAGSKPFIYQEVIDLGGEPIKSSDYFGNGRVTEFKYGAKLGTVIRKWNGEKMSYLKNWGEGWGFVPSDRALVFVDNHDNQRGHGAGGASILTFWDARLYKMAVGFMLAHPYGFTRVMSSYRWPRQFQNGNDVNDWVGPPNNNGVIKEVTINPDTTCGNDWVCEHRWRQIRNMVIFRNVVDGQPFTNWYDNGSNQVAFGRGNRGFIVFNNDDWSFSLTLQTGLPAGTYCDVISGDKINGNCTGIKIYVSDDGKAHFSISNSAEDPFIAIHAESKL
Protocol: (§3) The IC50 and inhibition percentages (Inhib. %) of the enzymes α-amylase and α-glucosidase were calculated.

[5] = target: acetylcholinesterase (AChE) (Homo sapiens, UniProt P22303); experiment: biochemical; conditions: mean ± SE, n = 3; for IC50: read-out: AChE IC50 (µg/mL) (converted)
Protocol: The inhibition percentage and IC50 of the acetylcholinesterase (AChE) enzyme were measured using the Ellman method.

ABTS radical scavenging = format: biochemical; conditions: mean ± SE, n = 3; for ABTS (%): inhibition % at 20 µg/mL
Protocol: as §1

[6] = Iron-reducing power (IRP); format: biochemical; conditions: mean ± SE, n = 3
Protocol: as §1

α-glucosidase = experiment: α-Glucosidase inhibition; format: biochemical; conditions: for inhibition of α-glucosidase: at 20 µg/mL
Protocol: as §3

Sequence of acetylcholinesterase (AChE) (P22303 32-614, species assumed): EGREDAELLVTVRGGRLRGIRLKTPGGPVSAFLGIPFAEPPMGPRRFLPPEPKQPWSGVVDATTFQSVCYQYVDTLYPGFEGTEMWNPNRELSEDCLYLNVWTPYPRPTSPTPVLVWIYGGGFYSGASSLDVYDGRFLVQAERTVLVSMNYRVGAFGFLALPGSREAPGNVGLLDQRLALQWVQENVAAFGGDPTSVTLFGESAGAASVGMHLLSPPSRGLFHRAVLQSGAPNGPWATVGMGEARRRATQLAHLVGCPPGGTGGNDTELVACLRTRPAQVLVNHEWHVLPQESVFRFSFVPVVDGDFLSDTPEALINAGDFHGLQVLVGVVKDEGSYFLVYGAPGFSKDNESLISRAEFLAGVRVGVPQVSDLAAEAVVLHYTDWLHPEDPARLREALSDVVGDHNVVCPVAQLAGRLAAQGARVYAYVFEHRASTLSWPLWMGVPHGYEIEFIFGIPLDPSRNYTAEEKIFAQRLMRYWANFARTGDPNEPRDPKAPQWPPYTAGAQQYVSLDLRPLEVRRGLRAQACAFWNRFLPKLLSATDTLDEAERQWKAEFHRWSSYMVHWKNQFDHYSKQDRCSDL

SMILES | H2O2 scavenging IC50 [1] | NO radical scavenging IC50 [2] | Protein Denaturation Inhibition (%) (protein denaturation) | Proteinase IC50 (proteinase enzyme) | Proteinase Inhibition (%) (proteinase enzyme) | OH radical scavenging IC50 [3] | TAC (mg Gallic Acid/g) [4] | DPPH radical scavenging IC50 (DPPH radical scavenging) | inhibition at 20 µg/mL (α-amylase) | inhibition at 20 µg/mL [5] | IC50 [5] | ABTS radical scavenging IC50 (ABTS radical scavenging) | IRP [6] | α-Glucosidase IC50 (α-glucosidase) | inhibition of α-glucosidase (α-glucosidase) | H2O2 (%) [1] | NO (%) [2] | OH (%) [3] | DPPH (%) (DPPH radical scavenging) | ABTS (%) (ABTS radical scavenging) | also measured
O=c1/c(=C\[C@@H](O)[C@@H](O)[C@H](O)[C@H](O)CO)sc2nc3sc4c(c3c(=O)n12)CCCC4 [8b, (E)-2-((2R,3R,4R,5R)-2,3,4,5,6-pentahydroxyhexylidene)-6,7,8,9-tetrahydro-5H-benzo-[4,5]thieno [2,3-d]thiazolo [3,2-a]pyrimidine-3,5(2H)-dione] | 10.28 ± 0.12 µg/mL | 6.88 ± 0.16 µg/mL | 11.80 ± 0.19% | 65.93 ± 2.02 µg/mL | 7.63 ± 0.19% | 9.24 ± 0.05 µg/mL | 68.01 mg Gallic Acid/g and 68.01 ± 0.78 mg Gallic Acid/g | 6.01 ± 0.12 µg/mL | 61.5 ± 0.74% | 5.19 ± 0.16% | 126 µM | 4.78 ± 0.05 µg/mL | 60.86 µg/mL and 60.86 ± 0.78 µg/mL | 3.85 ± 0.05 µg/mL | 54.78 ± 0.74% | – | – | – | – | – | IC50 (α-amylase): 15.4 µM
O=c1/c(=C\[C@H](O)[C@@H](O)[C@H](O)[C@H](O)CO)sc2nc3sc4c(c3c(=O)n12)CCC4 [7a, (E)-2-((2S,3R,4R,5R)-2,3,4,5,6-pentahydroxyhexylidene)-7,8-dihydro-5H,6H-cyclopenta-[4,5]thieno [2,3-d]thiazolo [3,2-a]pyrimidine-3,5(2H)-dione] | 73.10 ± 1.67 µg/mL | 48.89 ± 0.78 µg/mL | 11.62 ± 0.18% | 62.33 ± 1.77 µg/mL | 7.45 ± 0.18% | 65.77 ± 2.12 µg/mL | 17.44 mg Gallic Acid/g and 17.44 ± 0.22 mg Gallic Acid/g | – | 13.4 ± 0.21% | 5.75 ± 0.18% | 117 µM | 18.83 ± 0.22 µg/mL | 10.29 µg/mL and 10.29 ± 0.22 µg/mL | 31.92 ± 0.89 µg/mL | – | 8.07 ± 0.21% | 8.29 ± 0.22% | 7.21 ± 0.19% | 14.04 ± 0.22% | 17.19 ± 0.22% | –
O=C(O)Cc1ccccc1Nc1c(Cl)cccc1Cl [Diclofenac sodium, reference compound] | – | – | 60.74 ± 0.14% | 8.20 ± 0.06 µg/mL | 56.57 ± 0.14% | – | – | – | – | – | – | – | – | – | – | – | – | – | – | – | –
O=c1/c(=C\[C@@H](O)[C@H](O)[C@H](O)CO)sc2nc3sc4c(c3c(=O)n12)CCCC4 [8e, (E)-2-((2R,3S,4R)-2,3,4,5-tetrahydroxypentylidene)-6,7,8,9-tetrahydro-5H-benzo [4,5]thieno [2,3-d]thiazolo [3,2-a]pyrimidine-3,5(2H)-dione] | 10.17 ± 0.12 µg/mL | 6.80 ± 0.16 µg/mL | 54.07 ± 0.65% | 9.08 ± 0.11 µg/mL | 50.90 ± 0.65% | 9.14 ± 0.05 µg/mL | 68.69 mg Gallic Acid/g and 68.69 ± 0.79 mg Gallic Acid/g | 5.95 ± 0.12 µg/mL | 62.2 ± 0.75% | 5.24 ± 0.17% | 134 µM | 4.73 ± 0.05 µg/mL | 61.54 µg/mL and 61.54 ± 0.79 µg/mL | 3.81 ± 0.05 µg/mL | 55.43 ± 0.75% | – | – | – | – | – | IC50 (α-amylase): 16.3 µM
O=c1/c(=C\[C@H](O)[C@@H](O)[C@H](O)CO)sc2nc3sc4c(c3c(=O)n12)CCCC4 [8d, (E)-2-((2S,3R,4R)-2,3,4,5-tetrahydroxypentylidene)-6,7,8,9-tetrahydro-5H-benzo [4,5]thieno [2,3-d]thiazolo [3,2-a]-pyrimidine-3,5(2H)-dione] | 77.03 ± 1.82 µg/mL | 51.52 ± 0.85 µg/mL | 11.28 ± 0.18% | 65.40 ± 1.90 µg/mL | 7.11 ± 0.18% | 69.29 ± 2.28 µg/mL | 17.02 ± 0.21 mg Gallic Acid/g | 28.53 ± 0.30 µg/mL | 13 ± 0.2% | 5.61 ± 0.18% | 125 µM | 19.31 ± 0.23 µg/mL | 9.87 ± 0.21 µg/mL | 33.99 ± 0.98 µg/mL | – | 7.66 ± 0.21% | 7.87 ± 0.21% | 6.84 ± 0.19% | 13.62 ± 0.21% | 16.77 ± 0.21% | –
O=c1/c(=C\[C@@H](O)[C@H](O)[C@H](O)CO)sc2nc3sc4c(c3c(=O)n12)CCC4 [7e, (E)-2-((2R,3S,4R)-2,3,4,5-tetrahydroxypentylidene)-7,8-dihydro-5H,6H-cyclopenta [4,5]thieno [2,3-d]thiazolo [3,2-a]-pyrimidine-3,5(2H)-dione] | 62.92 ± 1.25 µg/mL | 42.12 ± 1.33 µg/mL | 12.73 ± 0.18% | 54.22 ± 0.58 µg/mL | 8.56 ± 0.18% | 56.57 ± 0.81 µg/mL | 18.77 ± 0.21 mg Gallic Acid/g | 25.27 ± 0.54 µg/mL | 14.6 ± 0.2% | 4.11 ± 0.13% | 176 µM | 17.47 ± 0.17 µg/mL | 11.62 ± 0.21 µg/mL | 26.75 ± 0.52 µg/mL | – | 9.37 ± 0.21% | 9.62 ± 0.21% | 8.37 ± 0.19% | 15.37 ± 0.21% | 18.52 ± 0.21% | –
O=C1O[C@H]([C@@H](O)CO)C(O)=C1O [ascorbic acid, reference compound] | 9.24 µg/mL | 6.18 µg/mL | – | – | – | 8.31 µg/mL | 78.44 mg Gallic Acid/g | 5.45 µg/mL | – | – | – | 4.35 µg/mL | 67.49 µg/mL | – | – | – | – | – | – | – | –
C[C@H]1O[C@H](O[C@H]2[C@H](O)[C@@H](O)[C@@H](O[C@H]3[C@H](O)[C@@H](O)C(O)O[C@@H]3CO)O[C@@H]2CO)[C@H](O)[C@@H](O)[C@@H]1N[C@H]1C=C(CO)[C@@H](O)[C@H](O)[C@H]1O (stereo partly shown) [Acarbose, reference compound] | – | – | – | – | – | – | – | – | 69.85 ± 0.16% | – | – | – | – | – | 63.10 ± 0.16% | – | – | – | – | – | –
